For one test, the system named is KU812. The test is described as follows: Cancer cell proliferation, [3H]-thymidine incorporation, KU812. The conditions noted are these: Homo sapiens, 120 h; KU812 line; five days; read-out: EC50, inhibition of cell growth. It is filed as cell-based. The protocol:
(§1) The effect of compounds of the invention on cancer cell proliferation was evaluated by testing one of the compounds against a panel of Chronic Myeloid Leukemia (CML) cell lines, including KU812, RWLeu4, K562, and MEG-01.
(§2) The inhibitory activity of the compound (D-000, dissolved in DMSO) was determined as follows. The tested compound was added in a series of concentrations (0.001 μM to 20 μM) to 96-well microtiter plates with cells (1000 to 5000 cells/well). Plates were incubated for five days at 37° C. during which the control cultures without test compound were able to undergo at least two cell-division cycles. Cell growth was measured by incorporation of [^3H]-thymidine for eighteen hours added at days three, four, and five. Cells were transferred to a filter, washed and the radioactivity counted using a Matrix 96 beta counter (Packard). The percentage of cell growth was measured as follows: […]

Another test deals with RWLeu4. As to the kind of experiment: Cancer cell proliferation, [3H]-thymidine incorporation, RWLeu4. The class given is cell-based. The conditions noted are these: Homo sapiens, 120 h; RWLeu4 line; five days; read-out: EC50, inhibition of cell growth. Here is the method:
as §1, §2

Each structure is given as a SMILES string.

Regarding `O=c1c2ccccc2nc(CSc2ncnc3[nH]cnc23)n1-c1ccccc1Cl` [Compound D-000, 3-(2-chlorophenyl)-2-(9H-purin-6-ylsulfanylmethyl)-3H-quinazolin-4-one], the EC50 with KU812 and with RWLeu4 was approximately 2000 nM in each case.

The values above are taken from patent US20200061062A1, “INHIBITORS OF HUMAN PHOSPHATIDYLINOSITOL 3-KINASE DELTA” (ICOS Corporation, priority 2000, published 2020).
